pIC50: −log10 of the molar value.
Tests used:
Human FXIIa = Human FXIIa (Homo sapiens (Human), UniProt P00748); test: Factor XIIa (FXIIa) inhibitory activity, chromogenic substrate (Pefachrome XIIa) cleavage; assay type: biochemical; settings: 10 min pre-incubation, Pefachrome XIIa 400 μM
Human alpha-thrombin = Human alpha-thrombin (Homo sapiens (Human), UniProt P00734); test: Thrombin counterscreen for selectivity, fluorogenic substrate cleavage; assay type: biochemical; settings: 10 min pre-incubation, Boc-Val-Pro-Arg-AMC 20 μM
Method: Counterscreens for Selectivity:
Thrombin. In a 96-well white opaque plate, 80 μl of assay buffer was added to each well. Test compounds were added, and serially diluted as above, to generate a concentration range of approximately 1-100 μM. Human alpha-thrombin (Enzyme Research Labs) was diluted in assay buffer to a final concentration of 12.5 nM. 80 μl of this enzyme solution was added to the assay wells. The enzyme/compound mixtures were incubated for 10 minutes at room temperature. Fluorogenic substrate (Boc-Val-Pro-Arg-7-amido-4-methylcoumarin; Sigma) was added to assay wells at a final concentration of 20 μM. The assay plate was spun for 1 minute at 1500 g and then read at 37° C. in a SpectraMax M2 plate reader (λex=380 nm and λem=460 nm). Activity was quantified as the rate of change in fluorescence, which corresponds to the rate of substrate cleavage. IC50 values were determined as the concentration of inhibitor that produced 50% of the rate of change of control wells without any inhibitor. For compounds with activity <1 μM, the assay was repeated with a lower concentration range, typically from 10-1000 nM.

Chain of Human FXIIa (P00748 373-615): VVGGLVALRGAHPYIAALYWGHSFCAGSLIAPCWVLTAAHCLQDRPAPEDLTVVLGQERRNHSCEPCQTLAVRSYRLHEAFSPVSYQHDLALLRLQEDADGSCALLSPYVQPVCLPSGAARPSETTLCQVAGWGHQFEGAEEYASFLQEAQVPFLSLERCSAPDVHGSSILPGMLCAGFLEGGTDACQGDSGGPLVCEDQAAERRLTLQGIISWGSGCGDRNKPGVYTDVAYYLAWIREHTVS
Chain of Human FXIIa (P00748 20-372 partner): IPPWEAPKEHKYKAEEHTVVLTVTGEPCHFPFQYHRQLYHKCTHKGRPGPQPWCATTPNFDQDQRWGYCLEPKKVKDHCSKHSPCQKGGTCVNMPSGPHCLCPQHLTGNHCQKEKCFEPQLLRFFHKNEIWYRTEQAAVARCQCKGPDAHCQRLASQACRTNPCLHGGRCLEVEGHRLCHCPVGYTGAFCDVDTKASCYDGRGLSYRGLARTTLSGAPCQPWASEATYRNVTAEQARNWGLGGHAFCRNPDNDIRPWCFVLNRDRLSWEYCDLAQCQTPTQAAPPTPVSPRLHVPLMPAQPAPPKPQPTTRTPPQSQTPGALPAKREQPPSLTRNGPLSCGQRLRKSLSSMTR

SMILES	pIC50 (Human FXIIa)	pIC50 (Human alpha-thrombin)
CC(C)CN1CCc2c(nn(C(=O)C3CCNc4ccc(F)cc43)c2N)C1 (centres unmarked) [Example 153, (3-amino-6-isobutyl-4,5,6,7-tetrahydro-pyrazolo[3,4-c]pyridin-2-yl)(6-fluoro-1,2,3,4-tetrahydro-quinolin-4-yl)methanone]	7.30	< 4.00
CN1CCc2c(c(N)nn2C(=O)C2CCCc3[nH]ccc32)C1 (centres unmarked) [Example 98, (3-amino-5-methyl-4,5,6,7-tetrahydro-pyrazolo[4,3-c]pyridin-1-yl)(4,5,6,7-tetrahydro-1H-indol-4-yl)methanone]	4.70	4.15
CCN1CCc2c(c(N)nn2C(=O)C2CCNc3ccccc32)C1 (centres unmarked) [Example 94, (3-amino-5-ethyl-4,5,6,7-tetrahydro-pyrazolo[4,3-c]pyridin-1-yl)(1,2,3,4-tetrahydro-quinolin-4-yl)methanone]	< 4.30	< 4.10
Nc1c2c(nn1C(=O)C1CCNc3ccc(F)cc31)CCOC2 (centres unmarked) [Example 74, (3-amino-6,7-dihydropyrano[4,3-c]pyrazol-2(4H)-yl)(6-fluoro-1,2,3,4-tetrahydroquinolin-4-yl)methanone]	7.10	4.30
Nc1c2c(nn1C(=O)C1CCNc3ccccc31)CN(S(=O)(=O)c1ccccc1)CC2 (centres unmarked) [Example 105, (3-amino-6-(phenylsulfonyl)-4,5,6,7-tetrahydro-pyrazolo[3,4-c]pyridin-2-yl)(1,2,3,4-tetrahydro-quinolin-4-yl)methanone]	6.00	< 4.00
Cc1cc2c(C(=O)n3nc4c(c3N)CCN(S(C)(=O)=O)C4)cccc2[nH]1 [Example 101, (3-amino-6-(methylsulfonyl)-4,5,6,7-tetrahydro-pyrazolo[3,4-c]pyridin-2-yl)(2-methyl-1H-indol-4-yl)methanone]	7.70	5.00
CS(=O)(=O)N1CCc2c(nn(C(=O)[C@H]3CCCc4[nH]c(Cl)cc43)c2N)C1 (single isomer, unassigned) [Example 131, (S*)-(3-amino-6-(methylsulfonyl)-4,5,6,7-tetrahydro-pyrazolo[3,4-c]pyridin-2-yl)(2-chloro-4,5,6,7-tetrahydro-1H-indol-4-yl)methanone]	7.52	5.82
Cc1cccc2c1NCC[C@@H]2C(=O)n1nc2c(c1N)CCOC2 (single isomer, unassigned) [Example 198, (S*)-(3-amino-4,5-dihydropyrano[3,4-c]pyrazol-2(7H)-yl)(8-methyl-1,2,3,4-tetrahydro-quinolin-4-yl)methanone]	7.05	< 3.82
Cc1cc2c(C(=O)n3nc4c(c3N)CCN(C(=O)OC(C)(C)C)C4)cccc2[nH]1 [Example 7, Tert-butyl 3-amino-2-(2-methyl-1H-indole-4-carbonyl)-4,5-dihydro-2H-pyrazolo[3,4-c]pyridine-6(7H)-carboxylate]	7.15	< 4.60
CS(=O)(=O)N1CCc2c(nn(C(=O)C3CCNc4ncccc43)c2N)C1 (centres unmarked) [Example 41, (3-amino-6-(methylsulfonyl)-4,5,6,7-tetrahydropyrazolo[3,4-c]pyridin-2-yl)(1,2,3,4-tetrahydro-1,8-naphthyridin-4-yl)methanone]	5.77	5.36
COc1cccc2c1NCCC2C(=O)n1nc2c(c1N)CCN(S(C)(=O)=O)C2 (single isomer, unassigned) [Example 63, (S*)-(3-amino-6-(methylsulfonyl)-4,5,6,7-tetrahydropyrazolo[3,4-c]pyridin-2-yl)(8-methoxy-1,2,3,4-tetrahydroquinolin-4-yl)methanone]	6.85	4.46
Nc1c2c(nn1C(=O)C1CCNc3ccc(F)cc31)CN(S(=O)(=O)C1CC1)CC2 (centres unmarked) [Example 144, (3-amino-6-(cyclopropyl-sulfonyl)-4,5,6,7-tetrahydro-pyrazolo[3,4-c]pyridin-2-yl)(6-fluoro-1,2,3,4-tetrahydro-quinolin-4-yl)methanone]	6.64	< 4.10
CC(=O)N1CCc2c(nn(C(=O)C3CCNc4ccccc43)c2N)C1 (centres unmarked) [Example 107, 1-(3-amino-2-(1,2,3,4-tetrahydro-quinoline-4-carbonyl)-4,5-dihydro-2H-pyrazolo[3,4-c]pyridin-6(7H)-yl)ethanone]	5.74	< 4.40
CCN1CCc2c(nn(C(=O)[C@@H]3CCNc4c(C)cc(F)cc43)c2N)C1 (single isomer, unassigned) [Example 171, (R*)-(3-amino-6-ethyl-4,5,6,7-tetrahydro-pyrazolo[3,4-c]pyridin-2-yl)(6-fluoro-8-methyl-1,2,3,4-tetrahydro-quinolin-4-yl)methanone]	5.35	

The remaining molecules from weak to strong by pIC50 (Human FXIIa), led by results:

pIC50 (Human FXIIa)	pIC50 (Human alpha-thrombin)	SMILES
4.30	4.15	Nc1nn(C(=O)C2CCNc3ccccc32)c2c1CCN(S(=O)(=O)c1ccccc1)C2 (centres unmarked) [Example 106, (3-amino-6-(phenylsulfonyl)-4,5,6,7-tetrahydro-pyrazolo[3,4-c]pyridin-1-yl)(1,2,3,4-tetrahydro-quinolin-4-yl)methanone]
4.82	< 4.12	CCC(=O)N1CCc2c(N)nn(C(=O)C3CCNc4ccccc43)c2C1 (centres unmarked) [Example 120, 1-(3-amino-1-(1,2,3,4-tetrahydro-quinoline-4-carbonyl)-4,5-dihydro-1H-pyrazolo[3,4-c]pyridin-6(7H)-yl)propan-1-one]
4.82	4.82	CS(=O)(=O)N1CCc2c(N)nn(C(=O)C3CCNc4ccc(-c5ccncc5)cc43)c2C1 (centres unmarked) [Example 169, (3-amino-6-(methylsulfonyl)--4,5,6,7-tetrahydro-pyrazolo[3,4-c]pyridin-1-yl)(6-(pyridin-4-yl)-1,2,3,4-tetrahydro-quinolin-4-yl)methanone]
5.00		Nc1c2c(nn1C(=O)[C@@H]1CCNc3ccc(F)cc31)CNCC2 (single isomer, unassigned) [Example 147, (R*)-(3-amino-4,5,6,7-tetrahydro-pyrazolo[3,4-c]pyridin-2-yl)(6-fluoro-1,2,3,4-tetrahydro-quinolin-4-yl)methanone]
5.70	5.46	CS(=O)(=O)N1CCc2c(nn(C(=O)C3CCNc4ccc(-c5ccncc5)cc43)c2N)C1 (centres unmarked) [Example 168, (3-amino-6-(methylsulfonyl)-4,5,6,7-tetrahydro-pyrazolo[3,4-c]pyridin-2-yl)(6-(pyridin-4-yl)-1,2,3,4-tetrahydro-quinolin-4-yl)methanone]
5.70	< 4.30	CNS(=O)(=O)N1CCc2c(nn(C(=O)C3CCNc4ccccc43)c2N)C1 (centres unmarked) [Example 111, 3-amino-N-methyl-2-(1,2,3,4-tetrahydro-quinoline-4-carbonyl)-4,5-dihydro-2H-pyrazolo[3,4-c]pyridine-6(7H)-sulfonamide]
5.92		Nc1c2c(nn1C(=O)C1CCNc3ccc(F)cc31)CN(S(=O)(=O)c1ccncc1)CC2 (centres unmarked) [Example 155, (3-amino-6-(pyridin-4-ylsulfonyl)-4,5,6,7-tetrahydro-pyrazolo[3,4-c]pyridin-2-yl)(6-fluoro-1,2,3,4-tetrahydro-quinolin-4-yl)methanone]
6.35	< 4.07	CCC(=O)N1CCc2c(nn(C(=O)C3CCNc4ccccc43)c2N)C1 (centres unmarked) [Example 119, 1-(3-amino-2-(1,2,3,4-tetrahydro-quinoline-4-carbonyl)-4,5-dihydro-2H-pyrazolo[3,4-c]pyridin-6(7H)-yl)propan-1-one]
6.60	4.00	CCS(=O)(=O)N1CCc2c(nn(C(=O)C3CCNc4ccccc43)c2N)C1 (centres unmarked) [Example 125, (3-amino-6-(ethylsulfonyl)-4,5,6,7-tetrahydro-pyrazolo[3,4-c]pyridin-2-yl)(1,2,3,4-tetrahydro-quinolin-4-yl)methanone]
6.77	< 4.10	Cc1cccc2c1NCCC2C(=O)n1nc2c(c1N)COCC2 (centres unmarked) [Example 188, (3-amino-6,7-dihydropyrano[4,3-c]pyrazol-2(4H)-yl)(8-methyl-1,2,3,4-tetrahydro-quinolin-4-yl)methanone]
7.10	< 4.00	CC(C)(C)S(=O)(=O)N1CCc2c(nn(C(=O)C3CCNc4ccc(F)cc43)c2N)C1 (centres unmarked) [Example 138, (3-amino-6-(tert-butylsulfonyl)-4,5,6,7-tetrahydro-pyrazolo[3,4-c]pyridin-2-yl)(6-fluoro-1,2,3,4-tetrahydro-quinolin-4-yl)methanone]
7.30	4.80	CS(=O)(=O)N1CCc2c(nn(C(=O)C3CCNc4c(Cl)cccc43)c2N)C1 (centres unmarked) [Example 57, (3-amino-6-(methylsulfonyl)-4,5,6,7-tetrahydropyrazolo[3,4-c]pyridin-2-yl)(8-chloro-1,2,3,4-tetrahydroquinolin-4-yl)methanone]
7.30	< 4.00	Cc1cc(F)cc2c1NCCC2C(=O)n1nc2c(c1N)CCOC2 (single isomer, unassigned) [Example 76, (S*)-(3-amino-4,5-dihydropyrano[3,4-c]pyrazol-2(7H)-yl)(6-fluoro-8-methyl-1,2,3,4-tetrahydroquinolin-4-yl)methanone]
7.52	4.22	Cc1cc2c(C(=O)n3nc4c(c3N)CN(C)CC4)cccc2[nH]1 [Example 85, (3-amino-5-methyl-4,5,6,7-tetrahydro-pyrazolo[4,3-c]pyridin-2-yl)(2-methyl-1H-indol-4-yl)methanone]

From patent publication US11312723B2, “Pyranopyrazole and pyrazolopyridine immunomodulators for treatment of autoimmune diseases” (The Rockefeller University, priority 2017, dated 2022)
